Among the data in patent US12583839B2, “PD-L1 antagonist compound” (ADLAI NORTYE BIOPHARMA CO., LTD., priority 2019, dated 2026) are EC50 values, retold here.

As usually defined, the EC50 is the concentration giving half of the maximal effect.

The target in this test is T1, PD-1/PD-L1 (Homo sapiens, UniProt Q9NZQ7).
T1 construct: 60535 (PD-1/NFAT-Reporter-Jurkat); host or cells: CHO cells expressing PD-L1; Jurkat cells expressing PD-1
Kind of test: Detection of biological activity of PD-1/PD-L1 signaling inhibition at the cellular level (NFAT luciferase reporter, PD-1/NFAT-Reporter-Jurkat cells co-cultured with TCR activator/PD-L1-CHO cells). In kind it is cell-based. The settings on record: PD-1/NFAT-Reporter-Jurkat + TCR activator/PD-L1-CHO co-culture, 6 hours; Atezolizumab as positive control. The method, boiled down: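 CHO cells expressing PD-L1 and a TCR activator were seeded overnight at 37° C, pre-treated with compound for 30 minutes, then co-cultured 6 hours with Jurkat cells carrying PD-1 and an NFAT-luciferase reporter. Luminescence was read, and inhibition % was normalised between 0.1% DMSO and about 10 nM atezolizumab controls.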

T1 sequence (Q9NZQ7 19-290): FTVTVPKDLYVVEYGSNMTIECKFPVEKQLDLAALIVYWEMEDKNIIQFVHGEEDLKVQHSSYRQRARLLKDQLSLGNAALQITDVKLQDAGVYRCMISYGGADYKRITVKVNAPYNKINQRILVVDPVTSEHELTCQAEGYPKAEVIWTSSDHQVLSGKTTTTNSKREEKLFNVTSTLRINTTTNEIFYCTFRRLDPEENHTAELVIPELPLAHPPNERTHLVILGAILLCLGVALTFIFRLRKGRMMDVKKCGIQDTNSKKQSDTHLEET

In the case of `COc1cc(-c2cccc(-c3cccc4c3cnn4Cc3cc(OC)c(CN(C)C4CCC(CC(=O)O)CC4)cc3C(F)(F)F)c2Cl)ccc1CNC[C@@H]1CCC(=O)N1` (some centres unmarked) [Compound 146], the EC50 was 28 nM.
For `COc1cc(Cn2ncc3c(-c4cccc(-c5cc(F)c(CNC[C@@H]6CCC(=O)N6)c(OC)c5)c4Cl)cccc32)c(C(F)(F)F)cc1CN(C)[C@H]1CC[C@H](CC(=O)O)CC1` [Compound 147], the concentration for a half-maximal effect (EC50) was 32 nM.
With `COc1cc(Cn2ncc3c(-c4cccc(-c5cc(F)c(CNC[C@@H]6CCC(=O)N6)c(OC)c5)c4Cl)cccc32)c(C(F)(F)F)cc1CN(C)[C@H]1CC[C@H](C(=O)O)CC1` [Compound 148], the 50% effective concentration (EC50) turned out to be 34 nM.
As to `COc1cc(Cn2ncc3c(-c4cccc(-c5cc(F)c(CNC[C@@H]6CCC(=O)N6)c(OC)c5)c4Cl)cccc32)c(C(F)(F)F)cc1CN(C)[C@H]1C[C@H](C(=O)O)C1` [Compound 149], the EC50 is 28 nM.
To `COc1cc(Cn2ncc3c(-c4cccc(-c5cc(F)c(CNC[C@@H]6CCC(=O)N6)c(OC)c5)c4Cl)cccc32)c(C(F)(F)F)cc1CN(C)C12CCC(C(=O)O)(CC1)CC2` [Compound 150] belongs 30 nM; to `COc1cc(-c2cccc(-c3cccc4c3cnn4Cc3nc(OC)c(CN(C)[C@H]4CC[C@H](C(=O)O)CC4)cc3Cl)c2Cl)ccc1CNC[C@@H]1CCC(=O)N1` [Compound 151], 63 nM.
As for `COc1cc(Cn2ncc3c(-c4cccc(-c5ccc(CNC[C@@H]6CCC(=O)N6)c(OC)n5)c4Cl)cccc32)c(Cl)cc1CN(C)[C@H]1CC[C@H](C(=O)O)CC1` [Compound 152], the EC50 stood at 56 nM.
On to `COc1cc(-c2cccc(-c3cccc4c3cnn4Cc3cc(OC)c(CN(C)C4CCC(C(=O)O)CC4)cc3Cl)c2Cl)ccc1CNC[C@@H]1CCCC(=O)N1` (some centres unmarked) [Compound 153], for which the EC50 amounted to 94 nM.
With `COc1cc(-c2cccc(-c3c(Cl)ccc4c3cnn4Cc3cc(OC)c(CN[C@@H](CO)C(=O)O)cc3Cl)c2Cl)ccc1CNC[C@@H]1CCC(=O)N1` [Compound 154], the half-maximal effective concentration (EC50) was 393 nM.
For the compound `COc1cc(Cn2ncc3c(-c4cccc(-c5cc(Cl)c(CNC[C@@H]6CCC(=O)N6)c(OC)c5)c4Cl)cccc32)c(Cl)cc1CN(C)CC1CCC(C(=O)O)CC1` (some centres unmarked) [Compound 155], the EC50 is 145 nM.
To `COc1cc(Cn2ncc3c(-c4cccc(-c5ccc(CNC[C@@H]6CCC(=O)N6)c(OC)n5)c4Cl)cccc32)c(Cl)c(F)c1CN(C)C12CCC(C(=O)O)(CC1)CC2` [Compound 157] belongs 90 nM.
The same measure for `COc1cc(-c2cccc(-c3ccc(Cl)c4c3cnn4Cc3cc(OC)c(CN[C@@H](CO)C(=O)O)cc3Cl)c2Cl)ccc1CNC[C@@H]1CCC(=O)N1` [Compound 158]: 1010 nM; for `CCN(Cc1cc(Cl)c(Cn2ncc3c(-c4cccc(-c5cc(F)c(CNC[C@@H]6CCC(=O)N6)c(OC)c5)c4Cl)cccc32)cc1OC)C12CCC(C(=O)O)(CC1)CC2` [Compound 159]: 37 nM.
For `COc1cc(Cn2ncc3c(-c4cccc(-c5cc(F)c(CNC[C@@H]6CCC(=O)N6)c(OC)c5)c4Cl)cccc32)c(Cl)cc1CN(C)C12CCC(CC(=O)O)(CC1)CC2` [Compound 160], the concentration for a half-maximal effect (EC50) turned out to be 46 nM.
Take `COc1cc(Cn2ncc3c(-c4cccc(-c5cc(F)c(CNC[C@@H]6CCC(=O)N6)c(OC)c5)c4C)cccc32)c(Cl)cc1CN(C)C12CCC(C(=O)O)(CC1)CC2` [Compound 161]: the EC50 was determined as 75 nM.
Regarding `COc1cc(Cn2ncc3c(-c4cccc(-c5cc(F)c(CNC[C@@H]6CCC(=O)N6)c(OC)c5)c4Cl)cccc32)c(Cl)cc1CN(C)[C@H]1CC[C@H](O)CC1` [Compound 162], the EC50 was 44 nM.
Consider `COc1cc(-c2cccc(-c3cccc4c3cnn4Cc3nc(OC)c(CN(C)[C@H]4CC[C@H](C(=O)O)CC4)cc3Cl)c2Cl)cc(F)c1CNC[C@@H]1CCC(=O)N1` [Compound 163], for which the 50% effective concentration (EC50) amounted to 26 nM.
On to `COc1cc(Cn2ncc3c(-c4cccc(-c5ccc(CNC[C@@H]6CCC(=O)N6)c(OC)n5)c4C)cccc32)c(Cl)cc1CN(C)C12CCC(C(=O)O)(CC1)CC2` [Compound 164], for which the EC50 was determined as 105 nM.
Turning to `COc1cc(-c2cccc(-c3cccc4c3cnn4Cc3nc(OC)c(CN(C)C45CCC(C(=O)O)(CC4)CC5)cc3Cl)c2C)cc(F)c1CNC[C@@H]1CCC(=O)N1` [Compound 166], the half-maximal effective concentration (EC50) came out at 49 nM.
Turning to `COc1cc(Cn2ncc3c(-c4cccc(-c5cc(F)c(CNC[C@H]6CCC(=O)N6)c(OC)c5)c4Cl)cccc32)c(Cl)cc1CN(C)C12CCC(C(=O)O)(CC1)CC2` [Compound 167], the EC50 was 53 nM.
For `COc1cc(Cn2ncc3c(-c4cccc(-c5cc(F)c(CNC[C@@H]6CCCC(=O)N6)c(OC)c5)c4Cl)cccc32)c(Cl)cc1CN(C)C12CCC(C(=O)O)(CC1)CC2` [Compound 168], the EC50 amounted to 69 nM.
To `COc1nc(-c2cccc(-c3cccc4c3cnn4Cc3nc(OC)c(CN(C)C45CCC(C(=O)O)(CC4)CC5)cc3Cl)c2C)ccc1CNC[C@@H]1CCC(=O)N1` [Compound 169] belongs 59 nM; to `COc1cc(Cn2ncc3c(-c4cccc(-c5cnc(CNC[C@@H]6CCC(=O)N6)c(OC)n5)c4C)cccc32)c(Cl)cc1CN(C)C12CCC(C(=O)O)(CC1)CC2` [Compound 170], 265 nM; to `COc1cc(Cn2ncc3c(-c4cccc(-c5cc(F)c(CNC[C@@H]6CCC(=O)N6)c(OC)c5)c4Cl)cccc32)c(Cl)cc1CN(CCO)[C@H]1CC[C@H](C(=O)O)CC1` [Compound 171], 40 nM.
For the compound `COc1cc(-c2cccc(-c3cccc4c3cnn4Cc3nc(OC)c(CN(C)C45CCC(C(=O)O)(CC4)CC5)cc3Cl)c2Cl)cc(F)c1CNC[C@@H]1CCCC(=O)N1` [Compound 172], the EC50 came out at 32 nM.
As to `COc1cc(-c2cccc(-c3cccc4c3cnn4Cc3cc(N)c(CN(C)[C@H]4CC[C@H](C(=O)O)CC4)cc3Cl)c2Cl)cc(F)c1CNC[C@@H]1CCC(=O)N1` [Compound 173], the 50% effective concentration (EC50) amounted to 222 nM.
